Data on 11 compounds can be found in BindingDB's records for doi:10.1016/j.bioorg.2017.01.017 (University of The Punjab, 2017).

SMILES strings stand for the structures.

In the experiment the target is Alpha-glucosidase MAL12 (Saccharomyces cerevisiae (strain ATCC 204508 / S288c), UniProt P53341). Kind of experiment: α-Glucosidase Inhibition Assay.
Sequence of Alpha-glucosidase MAL12 (P53341 whole entry): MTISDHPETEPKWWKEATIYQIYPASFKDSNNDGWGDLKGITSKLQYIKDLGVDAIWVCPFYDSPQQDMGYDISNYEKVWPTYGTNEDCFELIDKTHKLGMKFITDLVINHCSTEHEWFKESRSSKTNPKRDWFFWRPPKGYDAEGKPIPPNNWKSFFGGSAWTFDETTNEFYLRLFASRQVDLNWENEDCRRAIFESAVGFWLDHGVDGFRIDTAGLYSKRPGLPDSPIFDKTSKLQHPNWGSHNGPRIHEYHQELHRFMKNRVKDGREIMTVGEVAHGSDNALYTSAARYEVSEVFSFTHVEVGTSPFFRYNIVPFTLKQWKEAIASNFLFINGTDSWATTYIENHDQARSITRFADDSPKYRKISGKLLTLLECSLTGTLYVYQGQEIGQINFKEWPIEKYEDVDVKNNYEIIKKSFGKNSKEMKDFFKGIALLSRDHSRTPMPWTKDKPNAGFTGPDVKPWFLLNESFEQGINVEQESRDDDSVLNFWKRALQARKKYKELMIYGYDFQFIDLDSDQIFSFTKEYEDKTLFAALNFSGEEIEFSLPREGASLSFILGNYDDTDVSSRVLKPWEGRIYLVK
Description: Afterwards, 10 μL of 0.5 mM p-nitrophenyl-a-d-glucopyranoside (code No. N1377 fromSigma Inc) was added to instigate the reaction. Later 30 min incubation at 37 °C, yellow coloured p-nitrophenol was formed and the absorbance was again recorded at 400 nm to see the difference. These tests were performed in triplicates and suitable dilutions of samples were made for screening.
The IC50 is the midpoint of a concentration-inhibition curve. Higher therefore signals lower potency. Take `O=c1oc2ccccc2cc1-c1nn(-c2ccccc2)cc1-c1nc(-c2ccccc2)c(-c2ccccc2)[nH]1` [3-(4-(4,5-diphenyl-1H-imidazol-2-yl)-1-phenyl-1H-pyrazol-3-yl)-2H-chromen-2-one (2j)]: half-maximal inhibition (IC50) was put at 2.78 µM.

For `Brc1ccc(-c2nn(-c3ccccc3)cc2-c2nc(-c3ccccc3)c(-c3ccccc3)[nH]2)cc1` [3-(4-Bromophenyl)-4-(4,5-diphenyl-1H-imidazol-2-yl)-1-phenyl-1H-pyrazole (2c)], inhibition was half-maximal at 12 µM (IC50). For the compound `Clc1ccc(-c2nn(-c3ccccc3)cc2-c2nc(-c3ccccc3)c(-c3ccccc3)[nH]2)cc1` [3-(4-Chlorophenyl)-4-(4,5-diphenyl-1H-imidazol-2-yl)-1-phenyl-1H-pyrazole (2b)], the IC50 stood at 13.2 µM.

`c1ccc(-c2ccc(-c3nn(-c4ccccc4)cc3-c3nc(-c4ccccc4)c(-c4ccccc4)[nH]3)cc2)cc1` [3-([1,1'-Biphenyl]-4-yl)-4-(4,5-diphenyl-1H-imidazol-2-yl)-1-phenyl-1H-pyrazole (2g)] yielded an IC50 of 17.5 µM. `c1ccc(-c2nn(-c3ccccc3)cc2-c2nc(-c3ccccc3)c(-c3ccccc3)[nH]2)cc1` [4-(4,5-Diphenyl-1H-imidazol-2-yl)-1,3-diphenyl-1H-pyrazole (2a)] registered a 50% inhibitory concentration (IC50) of 22.2 µM. This IC50 and that of the compound before are within 1.5-fold of each other.

`O=[N+]([O-])c1ccc(-n2cc(-c3nc(-c4ccccc4)c(-c4ccccc4)[nH]3)c(-c3ccccc3)n2)cc1` [4-(4,5-Diphenyl-1H-imidazol-2-yl)-1-(4-nitrophenyl)-3-phenyl-1H-pyrazole (2h)] registered an IC50 of 7.81 µM.

The compound `Cc1nn(-c2ccc([N+](=O)[O-])cc2)c(C)c1-c1nc(-c2ccccc2)c(-c2ccccc2)[nH]1` [4-(4,5-Diphenyl-1H-imidazol-2-yl)-3,5-dimethyl-1-(4-nitrophenyl)-1H-pyrazole (2i)] returned an IC50 of 22 µM. On to `O=[N+]([O-])c1cccc(-c2nn(-c3ccccc3)cc2-c2nc(-c3ccccc3)c(-c3ccccc3)[nH]2)c1` [4-(4,5-Diphenyl-1H-imidazol-2-yl)-3-(3-nitrophenyl)-1-phenyl-1H-pyrazole (2f)], for which the half-inhibitory concentration (IC50) was found to be 12.8 µM. Compound `COc1ccc(-c2nn(-c3ccccc3)cc2-c2nc(-c3ccccc3)c(-c3ccccc3)[nH]2)cc1` [4-(4,5-Diphenyl-1H-imidazol-2-yl)-3-(4-methoxyphenyl)-1-phenyl-1H-pyrazole (2e)] returned an IC50 of 24 µM.

Consider `O=[N+]([O-])c1ccc(-c2nn(-c3ccccc3)cc2-c2nc(-c3ccccc3)c(-c3ccccc3)[nH]2)cc1` [4-(4,5-Diphenyl-1H-imidazol-2-yl)-3-(4-nitrophenyl)-1-phenyl-1H-pyrazole (2d)], for which the midpoint of inhibition, the IC50, lay at 20.7 µM. In turn, `O=c1oc2ccc(Br)cc2cc1-c1nn(-c2ccccc2)cc1-c1nc(-c2ccccc2)c(-c2ccccc2)[nH]1` [6-Bromo-3-(4-(4,5-diphenyl-1H-imidazol-2-yl)-1-phenyl-1Hpyrazol-3-yl)-2H-chromen 2-one (2k)] came in with an IC50 of 2.95 µM.
